Reference: patent publication US7332505B2, “Nitrosated and nitrosylated proton pump inhibitors, compositions and methods of use” (Nitromed, Inc., priority 1999, dated 2008)
“Also recorded” adds a separate entry of the source.

Tested on: ethanol/HCl mixture-induced gastric lesions
Experiment: ethanol/HCl mixture-induced gastric lesion test in rats
Format: in vivo, Male Sprague Dawley rats
Details: for inhibition of the formation of gastric lesions (gastric lesion score) relative to vehicle alone: 200 μmol/kg by oral gavage 30 min before 60% ethanol in 150 mM HCl intragastrically, lesions scored 60 min later, vehicle 0.5% Methocel, FIG. 1
Description: The ethanol/HCl mixture-induced gastric lesion test in rats described by Takeuchi et al, J. Pharmacol. Exp. Ther., 286: 115-121 (1998), was used to evaluate gastric lesion activity. Male Sprague Dawley rats (Charles River Laboratories, Wilmington, Ma.) weighing 230-250 g were used for the experiments. The rats were housed with laboratory chow and water ad libitum prior to the study. The rats were fasted for 24 hours with free access to water and then dosed by oral gavage with vehicle or with the test compounds given at a volume of 0.5 ml/100 g body weight. Thirty minutes after oral dosing all the rats received 1 ml of a solution of 60% ethanol in 150 mM HCl intragastrically. Food was withheld after dosing. Sixty minutes after ethanol/HCl, rats were euthanized by pre-charged CO2. The stomachs were dissected along the greater curvature, washed with a directed stream of 0.9% saline and pinned open on a sylgard based petri dish for examination of the hemorrhagic lesions. Gastric lesion score was expressed in mm and calculated by summing the length of each lesion as described by Al-Ghamdi et al, J. Int. Med. Res., 19:2242 (1991). Results are expressed as the mean ± standard error of the mean. Statistical analysis were conducted using ANOVA test followed by a Student-Newman-Keuls post-hoc test using the Abacus Concepts, Super Anova computer program (Abacus Concepts, Inc., Berkeley, Calif.).

SMILES: Cc1c(CC(F)(F)F)ccnc1C[S+]([O-])c1nc2ccccc2n1COC(=O)CCC(=O)N(Cc1ccccc1)CC(C)(C)SN=O (stereo not drawn) [Example 2, {2-({[3-Methyl-4-(2,2,2-trifluoroethyl)-2-pyridyl]methyl}sulfinyl)benzimidazolyl]-methyl-3-{N-[2-methyl-2-(nitrosothio)-propyl]-N-benzylcarbamoyl}propanoate]
- inhibition of the formation of gastric lesions (gastric lesion score) relative to vehicle alone: significantly inhibited the formation of gastric lesions
- inhibition of the formation of gastric lesions (gastric lesion score) relative to lanzoprazole (200 μmol/kg by oral gavage 30 min before ethanol/HCl, p<0.05, FIG. 1): inhibited the formation of gastric lesions

SMILES: Cc1c(OCC(F)(F)F)ccnc1C[S+]([O-])c1nc2ccccc2[nH]1 (stereo not drawn) [Lanzoprazole, 2-(((3-methyl-4-(2,2,2-trifluoro-ethoxy)-2-pyridinyl)methyl)sulfinyl)-1H-benzimidazole, reference compound]
- inhibition of the formation of gastric lesions (gastric lesion score) relative to vehicle alone: did not significantly inhibit the formation of gastric lesions; also recorded: failed to significantly inhibit the formation of gastric lesions
